Entries after “also recorded” stand apart in the source; their conditions may differ.
Key:
[1] = system: IK1 channel; conditions: cited from earlier work; for mechanism of IK1 current increase: result in words
[2] = molecular target: BK channel (Mus musculus, UniProt Q08460); conditions: result in words; cited from earlier work
[3] = system: BK channel (large conductance Ca^2+-activated K channel, KCa1.1) in parotid acinar cells; experiment: Whole-cell patch clamp: IK1-induced inhibition of BK current; format: cell-based, mouse
[4] = system: IK1 (intermediate conductance Ca^2+-activated K channel, KCa3.1); experiment: Whole-cell patch clamp: IK1 current; format: cell-based, mouse; conditions: 10 μM DCEBIO, +50 mV, 80 nM free Ca^2+; result in words
[5] = system: BK channel; conditions: result in words, cited from earlier work
[6] = system: IK1 (intermediate conductance Ca^2+-activated K channel, KCa3.1); conditions: result in words; cited from earlier work
[7] = stated without own data or reference

Sequence of BK channel (Mus musculus, UniProt Q08460) (Q08460 whole entry): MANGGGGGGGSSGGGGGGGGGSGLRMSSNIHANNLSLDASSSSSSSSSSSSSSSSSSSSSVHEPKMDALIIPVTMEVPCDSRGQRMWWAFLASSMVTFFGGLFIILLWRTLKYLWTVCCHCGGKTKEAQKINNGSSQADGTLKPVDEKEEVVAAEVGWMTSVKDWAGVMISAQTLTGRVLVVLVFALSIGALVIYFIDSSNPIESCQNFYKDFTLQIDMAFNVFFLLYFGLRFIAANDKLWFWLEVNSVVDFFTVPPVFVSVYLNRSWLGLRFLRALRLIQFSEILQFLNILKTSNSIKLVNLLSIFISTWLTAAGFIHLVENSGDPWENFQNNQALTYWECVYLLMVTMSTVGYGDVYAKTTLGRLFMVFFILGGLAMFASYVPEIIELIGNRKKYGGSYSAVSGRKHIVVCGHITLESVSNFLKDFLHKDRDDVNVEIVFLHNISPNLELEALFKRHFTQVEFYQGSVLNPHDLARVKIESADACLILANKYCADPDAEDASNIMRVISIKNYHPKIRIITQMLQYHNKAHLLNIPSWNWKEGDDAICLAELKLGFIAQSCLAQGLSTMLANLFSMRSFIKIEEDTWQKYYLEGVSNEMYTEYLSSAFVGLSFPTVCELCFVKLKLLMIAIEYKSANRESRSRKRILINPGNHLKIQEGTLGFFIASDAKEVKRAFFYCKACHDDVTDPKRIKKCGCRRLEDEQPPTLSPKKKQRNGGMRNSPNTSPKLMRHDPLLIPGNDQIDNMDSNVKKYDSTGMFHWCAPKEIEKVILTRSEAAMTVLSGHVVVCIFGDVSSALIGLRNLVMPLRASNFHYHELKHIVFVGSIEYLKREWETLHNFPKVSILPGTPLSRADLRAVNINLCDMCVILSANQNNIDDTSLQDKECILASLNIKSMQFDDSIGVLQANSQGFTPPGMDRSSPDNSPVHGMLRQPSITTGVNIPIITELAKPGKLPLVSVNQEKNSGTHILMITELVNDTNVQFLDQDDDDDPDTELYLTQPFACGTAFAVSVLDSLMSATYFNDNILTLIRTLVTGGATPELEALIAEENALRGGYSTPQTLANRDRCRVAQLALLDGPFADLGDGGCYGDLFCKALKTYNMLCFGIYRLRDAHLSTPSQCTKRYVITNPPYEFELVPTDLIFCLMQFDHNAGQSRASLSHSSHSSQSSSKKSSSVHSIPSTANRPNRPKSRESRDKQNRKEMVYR

CCn1c(=O)[nH]c2ccccc21 [1-EBIO, 1-ethyl-2-benzimidazolinone]
share of closed events accounted for by the two closed times together ([1]; channels activated by 1-EBIO): 97%
share of events with closed time 5 msec ([1]; channels activated by 1-EBIO): 31%
share of events with closed time about 1.6 msec ([1]; channels activated by 1-EBIO): 66%
mechanism of IK1 current increase [1]: increase IK1 current by increasing the channel open probability

CCn1c(=O)[nH]c2cc(Cl)c(Cl)cc21 [DCEBIO, 5,6-Dichloro-1-ethyl-1,3-dihydro-2H-benzimidazol-2-one]
effect on BK channels in cells from IK1 gene-ablated mice [2]: no effects on BK channels
reduction of BK current ([3]; 2 μM DCEBIO, pooled from 5 cells, voltage-independent (Fig. 5A)): 50%
recovery of BK current after washout of DCEBIO ([3]; 10 μM DCEBIO, +50 mV, 80 nM free Ca^2+ in pipette, single example (Fig. 1)): 96 % of control
mean recovery of BK current after washout of DCEBIO ([3]; 10 μM DCEBIO, +50 mV, mean ± SEM, 9 experiments): 94 ± 3%
effect on time-dependent BK current ([3]; 10 μM DCEBIO, +50 mV, reversible, result in words): time-dependent BK current was reduced when IK1 channels were activated
inhibition of BK channel current by IK1 activation ([3]; 10 μM DCEBIO, +50 mV, single example (Fig. 2)): 60%
reduction in BK current by IK1 activation, remaining cells ([3]; 10 μM DCEBIO, four of 19 cells, omitted from analysis, result in words): only modest reductions
voltage dependence of IK1-induced BK inhibition ([3]; 10 μM DCEBIO, range of test voltages, result in words): very little voltage dependence; also recorded: relatively little and no consistent voltage dependence
mean block of BK current by IK1 activation ([3]; DCEBIO (10 μM), +50 mV, mean ± SEM, N = 5): 66 ± 6%
activation of IK1 current [4]: activated the time and voltage independent IK1 currents; also recorded: triggered the expected time- and voltage-independent current through these channels
mechanism of IK1 current increase [1]: increase IK1 current by increasing the channel open probability

CC[N+](CC)(CC)CC [TEA]
effect of internal TEA on BK single channel current level [5, 7]: reduction in the BK single channel current level (as does TEA)
time dependence of open channel block by internal TEA [5, 7]: no apparent time dependence

Clc1ccccc1C(c1ccccc1)(c1ccccc1)n1cccn1 [TRAM-34]
IK1 channel inhibition [6]: IK1 inhibitor
mean BK level after IK1 block by TRAM-34 ([3]; 1 or 10 μM TRAM-34 in presence of DCEBIO, mean ± SEM, N = 5): 88 ± 3 % of control

C[N+](C)(C)CCCCCCCCCC[N+](C)(C)C [decamethonium]
competition of native β subunit inactivation with cytosolic blockers [5]: does not

CC(C)(O)[C@H]1O[C@H]2CC[C@@]3(C)[C@@](O)(CC[C@H]4Cc5c([nH]c6ccccc56)[C@@]43C)C2=CC1=O [paxilline]
BK channel block by paxilline [5]: specific BK channel blocker

From PMC3292429 (Channels, 2009)
